Measured values taken from PMC8670397 (Bioorganic & medicinal chemistry, 2020).
pKi: −log10 of the molar value. Values belong to the molecule of their own block, whether it stands above or below them.

Experiments:
[1] = cited from earlier work
[2] = test system: D2R; conditions: similar to aripiprazole; cited from earlier work
[3] = target: 5-HT7 receptor (Homo sapiens, UniProt P34969)
[4] = target: 5-HT1A receptor (Homo sapiens, UniProt P08908)
[5] = target: D1 receptor (Homo sapiens, UniProt P21728); test: biochemical
D1 receptor, sequence (P21728 whole entry): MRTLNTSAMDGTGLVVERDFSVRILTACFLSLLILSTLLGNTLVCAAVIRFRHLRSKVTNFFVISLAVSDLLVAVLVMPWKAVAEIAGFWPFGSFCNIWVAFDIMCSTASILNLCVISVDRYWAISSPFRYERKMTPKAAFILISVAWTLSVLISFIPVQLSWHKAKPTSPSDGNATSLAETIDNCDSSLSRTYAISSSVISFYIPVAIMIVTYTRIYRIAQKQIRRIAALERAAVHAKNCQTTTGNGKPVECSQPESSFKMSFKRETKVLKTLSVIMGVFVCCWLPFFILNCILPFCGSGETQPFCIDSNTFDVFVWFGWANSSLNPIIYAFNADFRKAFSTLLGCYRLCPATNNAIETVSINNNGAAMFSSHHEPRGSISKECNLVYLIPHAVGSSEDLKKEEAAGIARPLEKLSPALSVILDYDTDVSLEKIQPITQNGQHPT

5-HT7 receptor, sequence (P34969 whole entry): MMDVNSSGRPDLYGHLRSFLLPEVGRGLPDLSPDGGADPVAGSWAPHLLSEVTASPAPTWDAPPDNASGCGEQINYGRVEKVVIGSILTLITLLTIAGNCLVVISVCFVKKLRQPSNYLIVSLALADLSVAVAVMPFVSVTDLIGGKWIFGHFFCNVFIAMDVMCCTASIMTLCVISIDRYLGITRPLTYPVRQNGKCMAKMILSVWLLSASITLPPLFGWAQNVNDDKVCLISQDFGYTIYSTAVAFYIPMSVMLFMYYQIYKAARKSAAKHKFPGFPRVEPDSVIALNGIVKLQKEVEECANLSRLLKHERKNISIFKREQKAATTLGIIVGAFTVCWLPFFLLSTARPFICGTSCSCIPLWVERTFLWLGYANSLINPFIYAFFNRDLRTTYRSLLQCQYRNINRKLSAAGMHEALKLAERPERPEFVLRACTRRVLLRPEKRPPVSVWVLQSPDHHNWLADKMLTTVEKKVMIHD
5-HT1A receptor, sequence (P08908 whole entry): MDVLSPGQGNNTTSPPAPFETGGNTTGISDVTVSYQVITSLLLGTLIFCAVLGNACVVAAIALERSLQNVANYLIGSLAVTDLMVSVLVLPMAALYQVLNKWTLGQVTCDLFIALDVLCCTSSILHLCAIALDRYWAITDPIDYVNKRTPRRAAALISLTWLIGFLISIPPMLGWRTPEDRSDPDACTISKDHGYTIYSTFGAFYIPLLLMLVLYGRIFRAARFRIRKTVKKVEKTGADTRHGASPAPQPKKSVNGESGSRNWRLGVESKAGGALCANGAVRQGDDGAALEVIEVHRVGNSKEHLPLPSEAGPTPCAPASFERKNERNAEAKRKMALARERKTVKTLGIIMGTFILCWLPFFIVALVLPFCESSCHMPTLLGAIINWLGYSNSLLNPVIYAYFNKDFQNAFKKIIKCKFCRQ

SMILES: Fc1ccc(CCCCN2CCN(c3ccccn3)CC2)cc1 [Compound 5, 1-(4-(4-fluorophenyl)butyl)-4-(pyridin-2-yl)piperazine]
- blood brain barrier (BBB) permeability [1]: high
- signaling at the D2R [2]: activates both G-protein and β-arrestin signaling

- mean pKi ± SEM 5-HT7 [3]: 7.2 ± 0.1
SMILES: Cc1ccc(N2CCN(CCCCc3ccc(F)cc3)CC2)nc1 [Compound 9, 1-(4-(4-fluorophenyl)butyl)-4-(5-methylpyridin-2-yl)piperazine]

- mean pKi ± SEM 5-HT1A [4]: 6.1 ± 0.1
SMILES: O=C1c2ccc(F)cc2CC1CCN1CCCN(c2ccccn2)CC1 (stereo not drawn) [Compound 14]

- pKi [5]: < 5.70
- mean pKi ± SEM 5-HT7 [3]: 6.63 ± 0.09
SMILES: Fc1ccc(CCCCN2CCN(c3cccnc3)CC2)cc1.O=C(O)C(=O)O [Compound 21, 1-(4-(4-fluorophenyl)butyl)-4-(pyridin-3-yl)piperazine oxalate]
